Assays:
Assay type in all cases: in vivo
[1] = test system: giant foxtail (Setaria faberii); assay: Test A preemergence; settings: Setaria faberi, pre-emergence, 240 h, preemergence, 0 to 100 scale where 0 is no effect and 100 is complete control, read-out: Foxtail, Giant plant response rating
Method in brief: (§1)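 Ratings of 0 (no effect) to 100 (complete control) come from visual comparison with untreated controls roughly 10 d after treatment. Test chemicals, formulated in a non-phytotoxic solvent mixture with surfactant, were applied either as a preemergence directed soil spray on seeded soil or postemergence to one- to two-leaf plants 2 to 10 cm tall.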

[2] = test system: barnyardgrass (Echinochloa crus-galli); assay: Test A preemergence; settings: Echinochloa crus-galli, pre-emergence, 240 h, preemergence, 0 to 100 scale where 0 is no effect and 100 is complete control, read-out: Barnyardgrass plant response rating
Method in brief: as §1

[3] = test system: ryegrass, Italian (Italian ryegrass, Lolium multiflorum); assay: Test A preemergence; settings: Lolium multiflorum, pre-emergence, 240 h, preemergence, 0 to 100 scale where 0 is no effect and 100 is complete control, read-out: Ryegrass, Italian plant response rating
Method in brief: as §1

[4] = test system: pigweed (Amaranthus retroflexus); assay: Test A preemergence; settings: Amaranthus retroflexus, pre-emergence, 240 h, preemergence, 0 to 100 scale where 0 is no effect and 100 is complete control, read-out: Pigweed plant response rating
[5] = test system: Kochia (Kochia scoparia); assay: Test A preemergence; settings: Bassia scoparia, pre-emergence, 240 h, preemergence, 0 to 100 scale where 0 is no effect and 100 is complete control, read-out: Kochia plant response rating
Method in brief: as §1

[6] = test system: ragweed (common ragweed, Ambrosia elatior); assay: Test A preemergence; settings: Ambrosia artemisiifolia, pre-emergence, 240 h, preemergence, 0 to 100 scale where 0 is no effect and 100 is complete control, read-out: Ragweed plant response rating
Method in brief: as §1

[7] = test system: blackgrass (Alopecurus myosuroides); assay: Test A postemergence; settings: Alopecurus myosuroides, post-emergence, 240 h
Method in brief: as §1

[8] = test system: wheat (Triticum aestivum); assay: Test A postemergence; settings: Triticum aestivum, post-emergence, 240 h
Method in brief: as §1

[9] = test system: giant foxtail (Setaria faberii); assay: Test A postemergence; settings: Setaria faberi, post-emergence, 240 h
Method in brief: as §1

[10] = test system: barnyardgrass (Echinochloa crus-galli); assay: Test A postemergence; settings: Echinochloa crus-galli, post-emergence, 240 h
Method in brief: as §1

[11] = test system: pigweed (Amaranthus retroflexus); assay: Test A postemergence; settings: Amaranthus retroflexus, post-emergence, 240 h
Method in brief: as §1

[12] = test system: Kochia (Kochia scoparia); assay: Test A postemergence; settings: Bassia scoparia, post-emergence, 240 h
Method in brief: as §1

[13] = test system: corn (Zea mays); assay: Test A postemergence; settings: Zea mays, post-emergence, 240 h
Method in brief: as §1

[14] = test system: ragweed (common ragweed, Ambrosia elatior); assay: Test A postemergence; settings: Ambrosia artemisiifolia, post-emergence, 240 h
Method in brief: as §1

[15] = test system: Galium (catchweed bedstraw, Galium aparine); assay: Test A postemergence; settings: Galium, post-emergence, 240 h
Method in brief: as §1

[16] = 125 g ai/ha, visual injury rating, approximately 10 d

CCc1ccc([C@H]2CNC(=O)[C@@H]2C(=O)Nc2c(F)cccc2F)cc1 [Compound 1248] gave a pest or weed control at 125 g/ha [1, 16] of 0%, a pest or weed control at 500 g/ha ([1]; 500 g ai/ha) of 50% and a pest or weed control at 125 g/ha [2, 16] of 70%. The pest or weed control at 500 g/ha ([2]; 500 g ai/ha) was 90%, the pest or weed control at 125 g/ha [3, 16] was 0% and the pest or weed control at 500 g/ha ([3]; 500 g ai/ha) was 0%. The pest or weed control at 125 g/ha [4, 16] was 0%, the pest or weed control at 500 g/ha ([4]; 500 g ai/ha) was 0% and the pest or weed control at 125 g/ha [5, 16] was 0%. For the same compound, the pest or weed control at 500 g/ha ([5]; 500 g ai/ha) was 0%, the pest or weed control at 125 g/ha [6, 16] was 0% and the pest or weed control at 500 g/ha ([6]; 500 g ai/ha) was 0%. It also gave a pest or weed control at 125 g/ha ([7]; 125 g ai/ha, postemergence, visual injury vs untreated controls after approx. 10 d, 0 = no effect, 100 = complete control, read-out: Blackgrass plant response rating (0 to 100 scale)) of 0%, a pest or weed control at 500 g/ha ([7]; Postemergence, 500 g ai/ha, visual injury, 0 to 100 scale (0 no effect, 100 complete control), approx. 10 d, read-out: Plant response rating, Blackgrass) of 0% and a plant injury at 125 g/ha ([8]; 125 g ai/ha, postemergence, visual injury vs untreated controls after approx. 10 d, 0 = no effect, 100 = complete control, read-out: Wheat plant response rating (0 to 100 scale)) of 0%. It also gave a plant injury at 500 g/ha ([8]; Postemergence, 500 g ai/ha, visual injury, 0 to 100 scale (0 no effect, 100 complete control), approx. 10 d, read-out: Plant response rating, Wheat) of 0%, a pest or weed control at 125 g/ha ([9]; 125 g ai/ha, postemergence, visual injury vs untreated controls after approx. 10 d, 0 = no effect, 100 = complete control, read-out: Foxtail, Giant plant response rating (0 to 100 scale)) of 0% and a pest or weed control at 500 g/ha ([9]; Postemergence, 500 g ai/ha, visual injury, 0 to 100 scale (0 no effect, 100 complete control), approx. 10 d, read-out: Plant response rating, Foxtail, Giant) of 20%. It also gave a pest or weed control at 125 g/ha ([10]; 125 g ai/ha, postemergence, visual injury vs untreated controls after approx. 10 d, 0 = no effect, 100 = complete control, read-out: Barnyardgrass plant response rating (0 to 100 scale)) of 0%, a pest or weed control at 500 g/ha ([10]; Postemergence, 500 g ai/ha, visual injury, 0 to 100 scale (0 no effect, 100 complete control), approx. 10 d, read-out: Plant response rating, Barnyardgrass) of 50% and a pest or weed control at 125 g/ha ([11]; 125 g ai/ha, postemergence, visual injury vs untreated controls after approx. 10 d, 0 = no effect, 100 = complete control, read-out: Pigweed plant response rating (0 to 100 scale)) of 0%. It also gave a pest or weed control at 500 g/ha ([11]; Postemergence, 500 g ai/ha, visual injury, 0 to 100 scale (0 no effect, 100 complete control), approx. 10 d, read-out: Plant response rating, Pigweed) of 0%, a pest or weed control at 125 g/ha ([12]; 125 g ai/ha, postemergence, visual injury vs untreated controls after approx. 10 d, 0 = no effect, 100 = complete control, read-out: Kochia plant response rating (0 to 100 scale)) of 0% and a pest or weed control at 500 g/ha ([12]; Postemergence, 500 g ai/ha, visual injury, 0 to 100 scale (0 no effect, 100 complete control), approx. 10 d, read-out: Plant response rating, Kochia) of 0%. The plant injury at 125 g/ha ([13]; 125 g ai/ha, postemergence, visual injury vs untreated controls after approx. 10 d, 0 = no effect, 100 = complete control, read-out: Corn plant response rating (0 to 100 scale)) was 0%, the Corn plant response rating (crop injury, 0 = no effect, 100 = complete kill) at 500 g/ha ([13]; Postemergence, 500 g ai/ha, visual injury, 0 to 100 scale (0 no effect, 100 complete control), approx. 10 d) was 0% and the pest or weed control at 125 g/ha ([14]; 125 g ai/ha, postemergence, visual injury vs untreated controls after approx. 10 d, 0 = no effect, 100 = complete control, read-out: Ragweed plant response rating (0 to 100 scale)) was 0%. The pest or weed control at 500 g/ha ([14]; Postemergence, 500 g ai/ha, visual injury, 0 to 100 scale (0 no effect, 100 complete control), approx. 10 d, read-out: Plant response rating, Ragweed) was 0%, the pest or weed control at 125 g/ha ([15]; 125 g ai/ha, postemergence, visual injury vs untreated controls after approx. 10 d, 0 = no effect, 100 = complete control, read-out: Galium plant response rating (0 to 100 scale)) was 0% and the pest or weed control at 500 g/ha ([15]; Postemergence, 500 g ai/ha, visual injury, 0 to 100 scale (0 no effect, 100 complete control), approx. 10 d, read-out: Plant response rating, Galium) was 0%.

From patent US12077503B2, “Substituted cyclic amides and their use as herbicides” (FMC CORPORATION, priority 2015, dated 2024)
